In US9029401B2 (The Regents of the University of California, priority 2011, dated 2015):
Where two headings read alike, the source gives them in different places.

Key:
[1] = test system: ACHN renal cell carcinoma cell line; experiment: MTT cell viability assay, ACHN; assay type: cell-based; conditions: Homo sapiens, read-out: EC50 on cell viability, ACHN (Kidney)
Protocol: (§1) Cell-based assays were performed using the described cell lines, grown in the appropriate Growth Mediums containing 10% fetal bovine serum and 1% penicillin-streptomycin. Cancer cells were plated at 15,000 cells/well in 96-well plates and allowed to attach overnight. […] Cell viability was determined after 72 hours incubation periods. To determine anti-proliferative effects of inhibitors, cellular proliferation was determined using the colorimetric MTT cell viability assay kit, as described by the manufacture (ATCC).

HepG2 hepatoma cell line = experiment: MTT cell viability assay, HepG2; assay type: cell-based; conditions: for EC50: Homo sapiens, read-out: EC50 on cell viability, HepG2 (Liver)
Protocol: as §1

Huh-7 hepatoma cell line = experiment: MTT cell viability assay, Huh-7; assay type: cell-based; conditions: Homo sapiens, read-out: EC50 on cell viability, Huh-7 (Liver)
Protocol: as §1

[2] = test system: PC-3 prostate cancer cell line; experiment: MTT cell viability assay, PC-3; assay type: cell-based; conditions: read-out: EC50 on cell viability, PC-3 (Prostate)
Protocol: (§2) Cell-based assays were performed using the described cell lines, grown in the appropriate Growth Mediums containing 10% fetal bovine serum and 1% penicillin-streptomycin. Cancer cells were plated at 15,000 cells/well in 96-well plates and allowed to attach overnight. Inhibitors were dissolved in DMSO and then diluted to concentrations ranging from 0.1-25 μM with a final DMSO concentration of 0.1%. Cell viability was determined after 72 hours incubation periods. To determine anti-proliferative effects of inhibitors, cellular proliferation was determined using the colorimetric MTT cell viability assay kit, as described by the manufacture (ATCC).

[3] = test system: SKBR3 breast cancer cell line; experiment: MTT cell viability assay, SKBR3; assay type: cell-based; conditions: Homo sapiens, read-out: EC50 on cell viability, SKBR3 (Breast)
Protocol: as §2

Raf-1 = Raf-1 (Homo sapiens (Human), UniProt P04049); experiment: In vitro kinase inhibition assay (ADP-Glo), Raf-1; assay type: biochemical
Sequence of Raf-1 (P04049 whole entry): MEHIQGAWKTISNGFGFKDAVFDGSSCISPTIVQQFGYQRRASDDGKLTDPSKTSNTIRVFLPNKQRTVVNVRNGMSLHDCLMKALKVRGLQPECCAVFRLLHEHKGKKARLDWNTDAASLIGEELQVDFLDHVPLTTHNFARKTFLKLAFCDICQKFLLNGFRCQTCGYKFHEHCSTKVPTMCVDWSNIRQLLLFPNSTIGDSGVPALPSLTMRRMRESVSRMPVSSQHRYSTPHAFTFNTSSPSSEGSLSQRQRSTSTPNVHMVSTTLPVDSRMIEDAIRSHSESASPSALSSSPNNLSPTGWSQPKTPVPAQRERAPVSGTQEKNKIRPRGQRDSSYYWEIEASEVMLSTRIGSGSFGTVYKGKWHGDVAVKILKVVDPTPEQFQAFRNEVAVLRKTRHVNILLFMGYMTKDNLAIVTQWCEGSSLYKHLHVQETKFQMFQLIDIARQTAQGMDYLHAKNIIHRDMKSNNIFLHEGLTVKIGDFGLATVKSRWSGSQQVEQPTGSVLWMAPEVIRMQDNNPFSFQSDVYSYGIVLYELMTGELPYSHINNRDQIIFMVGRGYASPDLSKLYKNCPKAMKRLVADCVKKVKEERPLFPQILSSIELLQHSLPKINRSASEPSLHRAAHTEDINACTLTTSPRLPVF
Protocol: (§3) All measurements included background and control (vehicle only) luminescence readings.
(§4) The kinases Raf-1 and b-Raf (V600E), and their corresponding substrate, MEK1, and Full length recombinant CRAF kinase and its respective substrate, recombinant MEK1, were purchased from US Biological (Swampscott, Mass.). All assays were performed under identical conditions for the Raf isozymes: 10 nM Enzyme, 1 μM MEK1, 10 μM ATP, at 22° C. for 2 hours. […] IC50 values were obtained by determining the change in the ADP production (luminescence signal) at various inhibitor concentrations as compared to the control assay. Individual data sets were performed in duplicate and each IC50 was determined by the average and standard deviation of three separate experiments.
as §4, with “Full” for “The kinases Raf-1 and b-Raf (V600E), and their corresponding substrate, MEK1, and Full”, “at” for “under identical conditions for the Raf isozymes:”, “CRAF,” for “Enzyme,”, “(luminescent” for “(luminescence”, “mean” for “average”

b-Raf (V600E) = b-Raf (V600E) (Homo sapiens (Human), UniProt P15056, V600E); experiment: In vitro kinase inhibition assay (ADP-Glo), b-Raf (V600E); assay type: biochemical
Sequence of b-Raf (V600E) (P15056 whole entry V600E): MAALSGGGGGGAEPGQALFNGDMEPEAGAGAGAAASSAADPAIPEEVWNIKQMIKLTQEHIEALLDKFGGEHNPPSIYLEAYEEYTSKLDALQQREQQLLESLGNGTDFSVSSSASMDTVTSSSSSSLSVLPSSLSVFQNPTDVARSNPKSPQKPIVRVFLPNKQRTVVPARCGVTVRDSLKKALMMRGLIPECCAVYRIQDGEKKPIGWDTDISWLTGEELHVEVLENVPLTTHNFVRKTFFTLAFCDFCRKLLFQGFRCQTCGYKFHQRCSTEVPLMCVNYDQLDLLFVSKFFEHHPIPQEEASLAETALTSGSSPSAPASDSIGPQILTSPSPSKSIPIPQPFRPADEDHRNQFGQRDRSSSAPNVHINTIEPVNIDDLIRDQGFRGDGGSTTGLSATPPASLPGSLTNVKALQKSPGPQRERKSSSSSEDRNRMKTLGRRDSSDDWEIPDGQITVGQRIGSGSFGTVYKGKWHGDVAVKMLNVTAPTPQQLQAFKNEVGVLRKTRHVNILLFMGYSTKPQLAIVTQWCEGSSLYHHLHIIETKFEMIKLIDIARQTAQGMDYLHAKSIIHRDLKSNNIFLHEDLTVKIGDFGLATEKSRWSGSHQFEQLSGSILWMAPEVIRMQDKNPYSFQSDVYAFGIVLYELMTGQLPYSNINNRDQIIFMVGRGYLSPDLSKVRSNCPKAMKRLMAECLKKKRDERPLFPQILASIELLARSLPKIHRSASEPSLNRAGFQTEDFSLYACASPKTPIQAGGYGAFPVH
Protocol: as §3, §4

[4] = test system: T47D breast cancer cell line; experiment: MTT cell viability assay, T47D; assay type: cell-based; conditions: Homo sapiens, 72 hours incubation
Protocol: as §2

human sEH = human sEH (Homo sapiens (Human), UniProt P34913); experiment: Inhibitory activity against human sEH; assay type: biochemical; conditions: read-out: Human sEH IC50
Sequence of human sEH (P34913 whole entry): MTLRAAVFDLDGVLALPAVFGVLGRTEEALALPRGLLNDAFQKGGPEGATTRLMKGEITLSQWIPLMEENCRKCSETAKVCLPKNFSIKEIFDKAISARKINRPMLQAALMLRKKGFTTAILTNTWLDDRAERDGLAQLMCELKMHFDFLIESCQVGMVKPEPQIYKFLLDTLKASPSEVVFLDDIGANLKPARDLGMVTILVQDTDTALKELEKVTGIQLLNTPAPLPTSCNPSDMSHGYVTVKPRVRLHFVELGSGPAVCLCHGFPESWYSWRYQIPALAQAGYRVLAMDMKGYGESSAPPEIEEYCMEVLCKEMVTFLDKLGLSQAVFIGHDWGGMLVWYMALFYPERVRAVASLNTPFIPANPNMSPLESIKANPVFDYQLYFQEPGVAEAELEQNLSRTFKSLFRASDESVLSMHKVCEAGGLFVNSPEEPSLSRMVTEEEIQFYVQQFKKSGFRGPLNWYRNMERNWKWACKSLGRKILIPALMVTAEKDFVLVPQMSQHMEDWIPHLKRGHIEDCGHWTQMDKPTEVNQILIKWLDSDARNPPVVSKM

[5] = Pharmacokinetics after cassette oral administration to mice; conditions: male, Swiss Webster, mouse, in vivo, 1 mg/kg
Protocol: Male Swiss Webster mice (10-week old, 30-35 g) were used for PK studies. […] Each blood sample was immediately transferred to a tube containing 50 μL of water containing 0.1% EDTA. After being mixed strongly on a Vortex for 1 min, all samples were stored at −80° C. until analysis. The extraction of sEHIs from blood was performed by a slight modification of a previous method. […] Torrance, Calif.) held at 50° C. […] The injection volume was 10 μL and the samples were kept at 4° C. in the auto sampler. Analytes were detected by negative mode electrospray ionizations tandem quadrupole trap mass spectrometry in multiple reaction-monitoring mode (MRM) on a Trap 4000 Mass Spectrometer (ABI, Milford, Mass.). The parameters of MS condition were the same as presented previously.

[6] = HepG2, MTT, 72 hours incubation
[7] = Huh-7, MTT, 72 hours incubation
[8] = SK-BR-3, MTT, 72 hours incubation

SMILES | EC50 [4] [µM] | EC50 ([1]; MTT, 72 hours incubation) [µM] | EC50 (HepG2 hepatoma cell line; [6]) [µM] | EC50 (Huh-7 hepatoma cell line; [7]) [µM] | EC50 ([2]; MTT, 72 hours incubation) [µM] | EC50 [3, 8] [µM] | IC50 (human sEH) [µM] | other results
CNC(=O)c1ccc(O[C@H]2CC[C@H](NC(=O)Nc3ccc(OC(F)(F)F)cc3)CC2)cc1 [Compound 2227, trans-N-Methyl-4-{4-[3-(4-trifluoromethoxy-phenyl)-ureido]-cyclohexyloxy}-benzamide] | > 25 | – | – | – | – | – | – | EC50 ([1]; 72 h): 6.5 µM; EC50 (HepG2 hepatoma cell line; HepG2, 72 h): 7 µM; EC50 (Huh-7 hepatoma cell line; Huh-7, 72 h): 5.5 µM; EC50 ([2]; 72 h): 10 µM; EC50 ([3]; SK-BR-3, 72 h): > 25 µM; IC50 (Raf-1): 0.34 ± 0.04 µM; IC50 (b-Raf (V600E)): > 10 µM
CNC(=O)c1cc(O[C@H]2CC[C@H](NC(=O)Nc3ccc(Cl)c(C(F)(F)F)c3)CC2)ccn1 [Compound 2278, trans-4-{4-[3-(4-chloro-3-trifluoromethyl-phenyl)-ureido]-cyclohexyloxy}-pyridine-2-carboxylic acid methylamide] | 5 | 7.5 | 7 | 8 | 7 | 8 | 0.0005 | Effect on Hep G2 cell viability (dose dependence) (HepG2 hepatoma cell line; FIG. 2): more efficient than sunitinib; Effect on Hep G2 cell viability (comparison of inhibitors) (HepG2 hepatoma cell line; FIG. 3, at a concentration 2-fold smaller): more efficient than sunitinib; Effect on Hep G2 cell viability (dose dependence) (HepG2 hepatoma cell line; FIG. 4): more efficient than sunitinib; AUC(0-t) [5]: 3 µM·h; Cmax [5]: 190 nM; Tmax [5]: 1.7 h
CNC(=O)c1ccc(O[C@H]2CC[C@H](NC(=O)NC34CC5CC(CC(C5)C3)C4)CC2)cc1 [Compound 2225, trans-4-[4-(3-adamantan-1-yl-ureido]-cyclohexyloxy)-N-methyl-benzamide] | 4.5 | 4.5 | 6 | 7 | 2 | 7.5 | 0.0005 | IC50 (Raf-1; 10 nM enzyme, 1 μM MEK1, 10 μM ATP, 22° C., 2 hours, read-out: Raf-1 IC50): > 10 µM
